In patent EP4603105A1, “PHARMACEUTICAL COMPOSITION CONTAINING CYCLIC COMPOUND HAVING SELECTIVE KRAS INHIBITORY EFFECT AGAINST HRAS AND NRAS” (CHUGAI SEIYAKU KABUSHIKI KAISHA, priority 2022, dated 2024):
Where two headings read alike, the source gives them in different places.

Key:
[1] = target: GDP-bound KRAS wild-type protein (Homo sapiens, UniProt P01116); assay: Binding to KRAS by surface plasmon resonance (SPR), dissociation constant KD
How it was run: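 Captured GDP-RAS (~100–300 RU) was exposed to increasing compound concentrations, 75 s per step, in running buffer with 10 µM GDP, 10 mM MgCl2 and 4% DMSO at pH 7.4.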

[2] = target: GDP-bound NRAS wild-type protein (Homo sapiens, UniProt P01111); assay: Binding to NRAS by surface plasmon resonance (SPR), KD and KD ratio to KRAS
Sequence of GDP-bound NRAS wild-type protein (P01111 whole entry): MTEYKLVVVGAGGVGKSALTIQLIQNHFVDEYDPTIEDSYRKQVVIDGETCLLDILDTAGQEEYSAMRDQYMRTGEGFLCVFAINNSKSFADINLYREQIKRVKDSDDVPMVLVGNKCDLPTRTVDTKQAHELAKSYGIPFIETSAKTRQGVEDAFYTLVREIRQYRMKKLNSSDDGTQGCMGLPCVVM
How it was run: (§1)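 Recombinant RAS proteins bearing a biotinylated Avi tag and loaded with GDP served as the captured ligand, recaptured fresh every cycle. Binding responses were referenced to an uncoated surface and a buffer-only blank cycle. Dissociation constants were obtained by 1:1 model fitting at 30°C.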

HRAS wild-type protein = HRAS wild-type protein (Homo sapiens, UniProt P01112); assay: Binding to HRAS by surface plasmon resonance (SPR), KD and KD ratio to KRAS
Sequence of HRAS wild-type protein (P01112 whole entry): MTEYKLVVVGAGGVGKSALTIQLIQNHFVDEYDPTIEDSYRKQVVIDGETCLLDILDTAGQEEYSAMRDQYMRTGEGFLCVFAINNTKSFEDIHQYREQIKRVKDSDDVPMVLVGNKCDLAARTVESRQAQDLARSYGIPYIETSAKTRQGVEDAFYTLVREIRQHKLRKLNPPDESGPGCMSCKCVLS
How it was run: as §1

[3] = tested on: human lung cancer strain NCI-H441; assay: NCI-H441 cell proliferation inhibitory activity (CellTiter-Glo, 4 days); type: cell-based; details: read-out: NCl-H441 IC50
How it was run: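 Signal came from […] measured per well once the reagent was added. Beforehand, cells were cultured at 37°C and 5% carbon dioxide on a compound series serially diluted in dimethyl sulfoxide.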

[4] = ratio of KD for GDP-bound NRAS wild-type protein to KD for KRAS
[5] = ratio of KD for HRAS wild-type protein to KD for KRAS
[6] = Single Cycle Kinetics, 1:1 binding model
[7] = ratio of KD with respect to GDP-bound NRAS wild-type protein to KD with respect to KRAS
[8] = ratio of KD with respect to HRAS wild-type protein to KD with respect to KRAS
[9] = 50% proliferation inhibitory concentration, four days

Sequence of GDP-bound KRAS wild-type protein (P01116 1-188 isoform P01116-2): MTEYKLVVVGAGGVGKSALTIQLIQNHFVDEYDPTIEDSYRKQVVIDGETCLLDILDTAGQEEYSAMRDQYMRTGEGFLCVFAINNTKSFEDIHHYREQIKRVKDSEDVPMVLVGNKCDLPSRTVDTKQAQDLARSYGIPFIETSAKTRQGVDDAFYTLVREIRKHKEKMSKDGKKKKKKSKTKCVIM

| SMILES | Kd ([1]; 1:1 binding model) [nM] | NRAS /KRAS [2, 4] | HRAS /KRAS (HRAS wild-type protein; [5]) | IC50 ([3]; NCI-H441 cells, 4 days) [nM] | Kd [1, 6] [nM] | NRAS /KRAS [2, 7] | HRAS /KRAS (HRAS wild-type protein; [8]) | IC50 [3, 9] [nM] | Kd ([1]; Single Cycle Kinetics) [nM] |
| --- | --- | --- | --- | --- | --- | --- | --- | --- | --- |
| CCO[C@@H]1C[C@H]2C(=O)NC3(CC(C)(C)C3)C(=O)N(C)[C@@H](C3CCCC3)C(=O)N(C)[C@H](C(=O)N(C)C)CC(=O)N(C)[C@@H](COC)C(=O)N[C@@H]([C@@H](C)CC)C(=O)N(C)CC(=O)N(C)[C@H]3C/C=C\CCN(C3=O)[C@@H](Cc3ccc(C)cc3)C(=O)N(C)CC(=O)N[C@@H](CCc3ccc(C(F)(F)F)c(Cl)c3)C(=O)N2C1 [PP2389] | 0.079 | A (a compound having 10 or more and less than 20 is denoted as A) | B (a compound having 3 or more and less than 10 is denoted as B) | 21.3 | – | – | – | – | – |
| CCO[C@@H]1C[C@H]2C(=O)NC3(CCC3)C(=O)N(C)[C@@H](C3CCCC3)C(=O)N(C)[C@H](C(=O)N(C)C)CC(=O)N(C)[C@@H](CC3CC3)C(=O)N[C@@H]([C@@H](C)CC)C(=O)N(C)CC(=O)N(C)[C@H]3C/C=C\CCN(C3=O)[C@@H](Cc3ccc(C(F)(F)F)cc3)C(=O)N(C)CC(=O)N[C@@H](CCc3ccc(C(F)(F)F)c(OC)c3)C(=O)N2C1 [PP1247] | – | – | – | – | 0.046 | A (a compound having 10 or more and less than 20 is denoted as A) | A (a compound having 10 or more and less than 20 is denoted as A) | 6.4 | – |
| CCC[C@@H]1NC(=O)C[C@@H](C(=O)N(C)C)N(C)C(=O)[C@H](C2CCCC2)N(C)C(=O)C2(CC(C)(C)C2)NC(=O)[C@@H]2C[C@@H](OCC)CN2C(=O)[C@H](CCc2ccc(C(F)(F)F)c(OC)c2)NC(=O)CN(C)C(=O)[C@H](Cc2ccc(C(F)(F)F)cc2)N2CC/C=C\C[C@@H](C2=O)N(C)C(=O)CN(C)C(=O)[C@H]([C@@H](C)CC)NC1=O [PP3447] | – | A (a compound having 10 or more and less than 20 is denoted as A) | A (a compound having 10 or more and less than 20 is denoted as A) | 19.1 | – | – | – | – | 0.16 |
| CCCO[C@@H]1C[C@H]2C(=O)NC3(CC(C)(C)C3)C(=O)N(C)[C@@H](C3CCCC3)C(=O)N(C)[C@H](C(=O)N(C)CC)CC(=O)N(C)[C@@H](COCC)C(=O)N[C@@H]([C@@H](C)CC)C(=O)N3C[C@@H](F)C[C@H]3C(=O)N(C)[C@H]3C/C=C\CCN(C3=O)[C@@H](Cc3ccc(C(F)(F)F)cc3)C(=O)N(C)CC(=O)N[C@@H](CCc3cc(F)c(C(F)(F)F)c(F)c3)C(=O)N2C1 [PP3401] | – | A (a compound having 10 or more and less than 20 is denoted as A) | A (a compound having 10 or more and less than 20 is denoted as A) | 10.9 | – | – | – | – | 0.32 |
| CCCO[C@@H]1C[C@H]2C(=O)NC3(CC(C)(C)C3)C(=O)N(C)[C@@H](C3CCCC3)C(=O)N(C)[C@H](C(=O)N(C)CC)CC(=O)N(C)[C@@H](COCC)C(=O)N[C@@H]([C@@H](C)CC)C(=O)N(C3CC3)CC(=O)N(C)[C@H]3C/C=C\CCN(C3=O)[C@@H](Cc3ccc(C)cc3)C(=O)N(C)CC(=O)N[C@@H](CCc3cc(F)c(C(F)(F)F)c(F)c3)C(=O)N2C1 [PP3458] | – | A (a compound having 10 or more and less than 20 is denoted as A) | A (a compound having 10 or more and less than 20 is denoted as A) | 28.8 | – | – | – | – | 0.82 |
| CCO[C@@H]1C[C@H]2C(=O)NC3(CCC3)C(=O)N(C)[C@@H](C(CC)CC)C(=O)N(C)[C@H](C(=O)N(C)C)CC(=O)N(C)[C@@H](CC3CC3)C(=O)N[C@@H]([C@@H](C)CC)C(=O)N(C)CC(=O)N(C)[C@H]3C/C=C\CCN(C3=O)[C@@H](CC3CCCCC3)C(=O)N(C)CC(=O)N[C@@H](CCc3cc(F)c(C(F)(F)F)c(F)c3)C(=O)N2C1 [PP1428] | – | – | – | – | 0.87 | AA (a compound having 20 or more is denoted as AA) | A (a compound having 10 or more and less than 20 is denoted as A) | 38.8 | – |
| CCC[C@H]1C(=O)N[C@@H]([C@@H](C)CC)C(=O)N(C)CC(=O)N(C)[C@H]2C/C=C\CCN(C2=O)[C@@H](CC2CCC(F)(F)CC2)C(=O)N(C)CC(=O)N[C@@H](CCc2ccc(C(F)(F)F)c(Cl)c2)C(=O)N2C[C@H](OCC)C[C@H]2C(=O)NC2(CC(C)(C)C2)C(=O)N(C)[C@@H](C(CC)CC)C(=O)N(C)[C@H](C(=O)N(C)C)CC(=O)N1C [PP2498] | 0.67 | A (a compound having 10 or more and less than 20 is denoted as A) | A (a compound having 10 or more and less than 20 is denoted as A) | 21.9 | – | – | – | – | – |
| CCCOC[C@H]1C(=O)N[C@@H](C2CCCC2)C(=O)N(CCC)CC(=O)N(C)[C@H]2C/C=C\CCN(C2=O)[C@@H](Cc2ccc(C(F)F)cc2)C(=O)N(C)CC(=O)N[C@@H](CCc2cc(F)c(C(F)(F)F)c(F)c2)C(=O)N2C[C@H](OCC)C[C@H]2C(=O)N(C)C2(CCC2)C(=O)N(C)[C@@H](C(CC)CC)C(=O)N(C)[C@H](C(=O)N(C)C)CC(=O)N1C [PP3507] | – | A (a compound having 10 or more and less than 20 is denoted as A) | A (a compound having 10 or more and less than 20 is denoted as A) | 29.8 | – | – | – | – | 0.9 |
| CCCCCC[C@H]1C(=O)N[C@@H]([C@@H](C)CC)C(=O)N(C)CC(=O)N(C)[C@H]2C/C=C\CCN(C2=O)[C@@H](Cc2ccc(C(F)(F)F)cc2)C(=O)N(C)CC(=O)N[C@@H](CCc2ccc(Cl)c(Cl)c2)C(=O)N2C[C@H](OCC)C[C@H]2C(=O)NC2(CCC2)C(=O)N(C)[C@@H](C(CC)CC)C(=O)N(C)[C@H](C(=O)N(C)C)CC(=O)N1C [PP1218] | – | – | – | – | 0.88 | AA (a compound having 20 or more is denoted as AA) | A (a compound having 10 or more and less than 20 is denoted as A) | 67.9 | – |
| CCO[C@@H]1C[C@H]2C(=O)NC3(CCC3)C(=O)N(C)[C@@H](C3CCCC3)C(=O)N(C)[C@H](C(=O)N(C)C)CC(=O)N(C)[C@@H](CC(C)C)C(=O)N[C@@H]([C@@H](C)CC)C(=O)N(C)CC(=O)N(C)[C@H]3C/C=C\CCN(C3=O)[C@@H](Cc3ccc(F)cc3C)C(=O)N(C)CC(=O)N[C@@H](CCc3ccc(Cl)c(Cl)c3)C(=O)N2C1 [PP1480] | – | – | – | – | 0.92 | A (a compound having 10 or more and less than 20 is denoted as A) | B (a compound having 3 or more and less than 10 is denoted as B) | 85.8 | – |
| CCCOC[C@H]1C(=O)N[C@@H]([C@@H](C)CC)C(=O)N(C)CC(=O)N(C)[C@H]2C/C=C\CCN(C2=O)[C@@H](CC2CCC(F)(F)CC2)C(=O)N(C)CC(=O)N[C@@H](CCc2cc(F)c(C(F)(F)F)c(F)c2)C(=O)N2C[C@H](OCC)C[C@H]2C(=O)NC2(CC(C)(C)C2)C(=O)N(C)[C@@H](C(CC)CC)C(=O)N(C)[C@H](C(=O)N(C)C)CC(=O)N1C [PP2472] | 0.58 | A (a compound having 10 or more and less than 20 is denoted as A) | A (a compound having 10 or more and less than 20 is denoted as A) | 42.3 | – | – | – | – | – |
| CCCC[C@H]1C(=O)N[C@@H]([C@@H](C)CC)C(=O)N2CCC[C@H]2C(=O)N(C)[C@H]2C/C=C\CCN(C2=O)[C@@H](Cc2ccc(C)cc2)C(=O)N(C)CC(=O)N[C@@H](CCc2ccc(C(F)(F)F)c(OC)c2)C(=O)N2C[C@H](OCC)C[C@H]2C(=O)OC2(CCC2)C(=O)N(C)[C@@H](C2CCCC2)C(=O)N(C)[C@H](C(=O)N(C)C)CC(=O)N1C [PP3383] | – | A (a compound having 10 or more and less than 20 is denoted as A) | A (a compound having 10 or more and less than 20 is denoted as A) | 17.5 | – | – | – | – | 0.74 |
| CCC(CC)[C@H]1C(=O)N(C)[C@H](C(=O)N2CCCCC2)CC(=O)N(C)[C@@H](COC)C(=O)N[C@@H]([C@@H](C)CC)C(=O)N(C)CC(=O)N(C)[C@H]2C/C=C\CCN(C2=O)[C@@H](Cc2ccc(C(F)(F)F)cc2)C(=O)N(C)CC(=O)N[C@@H](CCc2ccc(Cl)c(Cl)c2)C(=O)N2C[C@H](OC(C)C)C[C@H]2C(=O)NC2(CC(C)(C)C2)C(=O)N1C [PP2612] | 2.4 | AA (a compound having 20 or more is denoted as AA) | A (a compound having 10 or more and less than 20 is denoted as A) | 199 | – | – | – | – | – |
| C#CC[C@H]1C(=O)N[C@@H]([C@@H](C)CC)C(=O)N2CCC[C@H]2C(=O)N(C)[C@H]2C/C=C\CCN(C2=O)[C@@H](Cc2ccc(C(F)(F)F)cc2)C(=O)N(C)CC(=O)N[C@@H](CCc2ccc(C(F)(F)F)c(OC)c2)C(=O)N2C[C@H](OCC)C[C@H]2C(=O)OC2(CCC2)C(=O)N(C)[C@@H](C2CCCC2)C(=O)N(C)[C@H](C(=O)N(C)C)CC(=O)N1C [PP3371] | – | A (a compound having 10 or more and less than 20 is denoted as A) | A (a compound having 10 or more and less than 20 is denoted as A) | 5.4 | – | – | – | – | 0.33 |
| CCC[C@H]1C(=O)N[C@@H](C2CCCC2)C(=O)N(C)CC(=O)N(C)[C@H]2C/C=C\CCN(C2=O)[C@@H](Cc2ccc(C)cc2)C(=O)N(C)CC(=O)N[C@@H](CCc2ccc(C(F)(F)F)c(Cl)c2)C(=O)N2CC3(CC3)C[C@H]2C(=O)N(C)C2(CCC2)C(=O)N(C)[C@@H]([C@@H](C)CC)C(=O)N(C)[C@H](C(=O)N(C)C)CC(=O)N1C [PP3326] | – | A (a compound having 10 or more and less than 20 is denoted as A) | A (a compound having 10 or more and less than 20 is denoted as A) | 12.6 | – | – | – | – | 0.22 |
